Holding throughout (type): biochemical
In one assay the target is T1, Lck (Homo sapiens, UniProt P06239).
T1 construct: Kinases are expressed as either kinase domains or full length constructs; made in house
Description: Kinase inhibition assay (33P transfer), Lck. To be noted: Table 3; read-out: Lck-1. An excerpt: (§1) The inhibitor compounds described herein are screened in the following manner. Kinases suitable for use in the following protocol to determine kinase activity of the compounds described herein include, -but are not limited to: Lck, Lyn, Src, Fyn, Syk, Zap-70, Itk, Tec, Btk, EGFR, ErbB2, Kdr, Flt-1, Flt-3, Tek, c-Met, InsR, and AKT.
(§2) Kinases are expressed as either kinase domains or full length constructs fused to glutathione S-transferase (GST) or polyHistidine tagged fusion proteins in either E. colior Baculovirus-High Five expression systems. […] In some instances, kinases are co-expressed or mixed with purified or partially purified regulatory polypeptides prior to measurement of activity.
(§3) Briefly, The transfer of ^33PO4 from ATP to the synthetic substrates poly(Glu, Tyr) 4:1 or poly(Arg, Ser) 3:1 attached to the bioactive surface of microtiter plates serves as the basis to evaluate enzyme activity. After an incubation period, the amount of phosphate transferred is measured by first washing the plate with 0.5% phosphoric acid, adding liquid scintillant, and then counting in a liquid scintillation detector.

A further assay has as its target T2, Itk (Homo sapiens, UniProt Q08881).
T2 construct: Kinases are expressed as either kinase domains or full length constructs; made in house
T2 sequence (Q08881 1-620): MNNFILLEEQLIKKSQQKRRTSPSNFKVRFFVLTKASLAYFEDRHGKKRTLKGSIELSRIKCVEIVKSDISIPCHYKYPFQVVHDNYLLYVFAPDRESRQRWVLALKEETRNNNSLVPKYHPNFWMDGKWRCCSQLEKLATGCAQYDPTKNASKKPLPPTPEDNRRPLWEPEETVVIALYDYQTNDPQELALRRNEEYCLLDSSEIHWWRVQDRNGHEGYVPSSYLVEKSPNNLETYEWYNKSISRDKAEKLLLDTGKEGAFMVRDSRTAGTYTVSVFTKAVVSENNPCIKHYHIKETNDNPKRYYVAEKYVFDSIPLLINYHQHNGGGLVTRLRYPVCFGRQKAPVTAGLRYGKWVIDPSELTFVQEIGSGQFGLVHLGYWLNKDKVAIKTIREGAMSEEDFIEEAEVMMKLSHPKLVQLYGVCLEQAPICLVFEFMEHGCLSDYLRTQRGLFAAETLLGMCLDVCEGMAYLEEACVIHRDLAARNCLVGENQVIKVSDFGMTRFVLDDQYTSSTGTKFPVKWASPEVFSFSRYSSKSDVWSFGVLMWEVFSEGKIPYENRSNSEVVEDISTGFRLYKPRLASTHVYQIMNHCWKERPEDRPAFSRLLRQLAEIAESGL
Description: Kinase inhibition assay (33P transfer), Itk. The following applies: Table 3; read-out: Itk-1.
From the text: as §1
(§4) Kinases are expressed as either kinase domains or full length constructs fused to glutathione S-transferase (GST) or polyHistidine tagged fusion proteins in either E. colior Baculovirus-High Five expression systems. They are purified to near homogeneity by affinity chromatography essentially as previously described (Lehr et al., 1996; Gish et al., 1995). In some instances, kinases are co-expressed or mixed with purified or partially purified regulatory polypeptides prior to measurement of activity.
as §3, with “Kinase activity and inhibition are measured essentially by established protocols (Braunwalder et al., 1996). Briefly,” for “Briefly,”, “detector. The IC50 is determined by the concentration of compound that causes a 50% reduction in the amount of […] incorporated onto the substrate bound to the plate.” for “detector.”

The target of the next assay is T3, Kdr (Homo sapiens, UniProt P35968).
T3 construct: Kinases are expressed as either kinase domains or full length constructs; made in house
T3 sequence (P35968 20-1356, species assumed): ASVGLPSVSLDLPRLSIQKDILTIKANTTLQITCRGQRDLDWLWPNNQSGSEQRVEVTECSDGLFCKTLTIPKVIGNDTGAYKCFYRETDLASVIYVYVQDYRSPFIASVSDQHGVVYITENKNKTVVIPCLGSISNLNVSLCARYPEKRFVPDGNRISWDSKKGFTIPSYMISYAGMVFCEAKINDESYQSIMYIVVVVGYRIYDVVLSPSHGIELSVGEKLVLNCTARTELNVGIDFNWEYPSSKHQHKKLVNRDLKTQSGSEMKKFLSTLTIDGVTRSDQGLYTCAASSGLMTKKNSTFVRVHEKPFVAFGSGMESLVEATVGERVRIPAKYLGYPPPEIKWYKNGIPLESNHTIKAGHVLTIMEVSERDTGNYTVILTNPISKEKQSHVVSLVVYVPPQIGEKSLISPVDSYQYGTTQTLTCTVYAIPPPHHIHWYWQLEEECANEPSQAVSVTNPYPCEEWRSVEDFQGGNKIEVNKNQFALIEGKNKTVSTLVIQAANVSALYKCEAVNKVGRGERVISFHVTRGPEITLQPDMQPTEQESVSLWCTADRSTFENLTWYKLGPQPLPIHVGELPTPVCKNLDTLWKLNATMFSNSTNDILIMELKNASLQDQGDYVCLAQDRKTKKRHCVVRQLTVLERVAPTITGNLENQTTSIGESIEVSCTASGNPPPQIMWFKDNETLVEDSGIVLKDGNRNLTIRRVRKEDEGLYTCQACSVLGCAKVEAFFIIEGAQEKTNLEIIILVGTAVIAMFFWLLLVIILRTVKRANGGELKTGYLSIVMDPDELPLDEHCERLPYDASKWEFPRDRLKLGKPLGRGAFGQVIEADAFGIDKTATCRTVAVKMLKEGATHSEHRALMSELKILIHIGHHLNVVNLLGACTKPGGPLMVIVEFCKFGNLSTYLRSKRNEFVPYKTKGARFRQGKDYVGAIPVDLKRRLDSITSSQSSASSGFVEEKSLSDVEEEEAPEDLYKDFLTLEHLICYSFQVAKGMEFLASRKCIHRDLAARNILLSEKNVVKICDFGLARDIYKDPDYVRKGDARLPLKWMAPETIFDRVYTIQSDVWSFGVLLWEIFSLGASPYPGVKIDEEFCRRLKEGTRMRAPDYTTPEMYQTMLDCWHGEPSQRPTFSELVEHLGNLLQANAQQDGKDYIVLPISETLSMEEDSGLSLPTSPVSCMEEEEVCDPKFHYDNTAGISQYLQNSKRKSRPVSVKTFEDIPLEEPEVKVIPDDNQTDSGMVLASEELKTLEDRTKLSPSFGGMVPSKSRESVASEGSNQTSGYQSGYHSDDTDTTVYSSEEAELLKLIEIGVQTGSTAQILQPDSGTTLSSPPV
Put plainly: Kinase inhibition assay (33P transfer), Kdr. The following applies: Table 3; read-out: KDR-1.
From the text: as §1, §2, §3

The target of the next assay is T4, c-Met (Homo sapiens, UniProt P08581).
T4 construct: Kinases are expressed as either kinase domains or full length constructs; made in house
T4 sequence (P08581 25-1390): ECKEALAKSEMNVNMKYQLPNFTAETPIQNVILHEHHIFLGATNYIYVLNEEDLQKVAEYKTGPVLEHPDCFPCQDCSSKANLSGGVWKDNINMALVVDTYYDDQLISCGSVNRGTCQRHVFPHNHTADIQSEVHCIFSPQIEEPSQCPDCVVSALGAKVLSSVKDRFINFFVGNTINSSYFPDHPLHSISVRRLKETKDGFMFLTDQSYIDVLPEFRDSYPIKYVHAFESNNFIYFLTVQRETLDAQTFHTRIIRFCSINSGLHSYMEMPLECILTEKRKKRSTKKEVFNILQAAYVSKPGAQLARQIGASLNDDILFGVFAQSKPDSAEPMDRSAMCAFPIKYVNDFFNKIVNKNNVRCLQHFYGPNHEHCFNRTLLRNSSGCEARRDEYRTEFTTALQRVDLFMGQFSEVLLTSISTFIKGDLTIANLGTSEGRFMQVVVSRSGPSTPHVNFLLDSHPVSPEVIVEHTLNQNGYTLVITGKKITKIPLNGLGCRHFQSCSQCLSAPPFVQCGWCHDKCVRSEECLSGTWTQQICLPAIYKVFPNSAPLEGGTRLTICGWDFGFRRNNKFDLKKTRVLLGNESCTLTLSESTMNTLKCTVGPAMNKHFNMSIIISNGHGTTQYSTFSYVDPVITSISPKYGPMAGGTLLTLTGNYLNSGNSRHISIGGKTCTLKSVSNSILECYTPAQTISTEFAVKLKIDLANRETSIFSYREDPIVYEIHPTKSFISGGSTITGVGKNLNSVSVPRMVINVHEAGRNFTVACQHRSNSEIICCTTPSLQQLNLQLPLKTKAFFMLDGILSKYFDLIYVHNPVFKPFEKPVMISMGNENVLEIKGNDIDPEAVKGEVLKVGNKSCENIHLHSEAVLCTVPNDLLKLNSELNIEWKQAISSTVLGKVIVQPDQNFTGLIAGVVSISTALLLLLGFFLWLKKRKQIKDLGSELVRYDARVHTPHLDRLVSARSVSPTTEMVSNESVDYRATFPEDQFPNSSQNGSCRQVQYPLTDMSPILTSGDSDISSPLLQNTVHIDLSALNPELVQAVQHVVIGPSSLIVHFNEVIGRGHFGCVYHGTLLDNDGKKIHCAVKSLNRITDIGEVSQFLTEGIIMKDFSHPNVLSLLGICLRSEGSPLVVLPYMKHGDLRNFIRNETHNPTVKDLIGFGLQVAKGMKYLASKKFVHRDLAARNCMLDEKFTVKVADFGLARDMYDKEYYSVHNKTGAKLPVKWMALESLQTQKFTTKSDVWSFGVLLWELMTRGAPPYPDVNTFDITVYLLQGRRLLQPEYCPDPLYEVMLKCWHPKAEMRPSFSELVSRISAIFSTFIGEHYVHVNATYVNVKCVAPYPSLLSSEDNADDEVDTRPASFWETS
Put plainly: Kinase inhibition assay (33P transfer), c-Met. The following applies: Table 2, kinase inhibition class; read-out: Met-1.
From the text: as §1, §4
as §3, with “Kinase activity and inhibition are measured essentially by established protocols (Braunwalder et al., 1996). Briefly,” for “Briefly,”, “detector. The IC50 is determined by the concentration of compound that causes a 50% reduction in the amount of […] incorporated onto the substrate bound to the plate.” for “detector.”

The target in a further assay is T5, Zap-70 (Homo sapiens, UniProt P43403).
T5 construct: Kinases are expressed as either kinase domains or full length constructs; made in house
T5 sequence (P43403 1-619): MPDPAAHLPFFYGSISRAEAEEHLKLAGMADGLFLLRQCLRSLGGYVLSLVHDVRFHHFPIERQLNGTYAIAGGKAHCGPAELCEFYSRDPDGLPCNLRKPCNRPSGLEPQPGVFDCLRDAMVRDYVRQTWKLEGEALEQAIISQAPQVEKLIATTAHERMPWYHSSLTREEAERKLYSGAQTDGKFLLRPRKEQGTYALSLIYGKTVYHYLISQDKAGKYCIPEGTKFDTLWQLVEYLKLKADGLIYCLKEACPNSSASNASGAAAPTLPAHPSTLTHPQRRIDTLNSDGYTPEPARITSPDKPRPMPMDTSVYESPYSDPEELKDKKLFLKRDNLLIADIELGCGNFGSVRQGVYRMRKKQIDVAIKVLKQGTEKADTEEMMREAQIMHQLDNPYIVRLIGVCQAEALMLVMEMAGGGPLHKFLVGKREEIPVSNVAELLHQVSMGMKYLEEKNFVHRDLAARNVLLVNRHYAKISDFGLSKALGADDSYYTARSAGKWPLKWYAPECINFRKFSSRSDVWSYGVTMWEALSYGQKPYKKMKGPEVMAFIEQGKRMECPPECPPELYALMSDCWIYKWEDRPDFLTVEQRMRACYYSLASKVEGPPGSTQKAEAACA
Put plainly: Kinase inhibition assay (33P transfer), Zap-70. The following applies: Table 3; read-out: Zap-1.
From the text: as §1, §2, §3

Another assay addresses T6, EGFR (Homo sapiens, UniProt P00533).
T6 construct: Kinases are expressed as either kinase domains or full length constructs; made in house
Put plainly: Kinase inhibition assay (33P transfer), EGFR. The following applies: Table 2, kinase inhibition class; read-out: EGFR-1.
From the text: as §1, §4
as §3, with “Kinase activity and inhibition are measured essentially by established protocols (Braunwalder et al., 1996). Briefly,” for “Briefly,”, “detector. The IC50 is determined by the concentration of compound that causes a 50% reduction in the amount of […] incorporated onto the substrate bound to the plate.” for “detector.”

Some results are limits rather than exact numbers.

T1 sequence (P06239 whole entry, species assumed, the tested form may be a part): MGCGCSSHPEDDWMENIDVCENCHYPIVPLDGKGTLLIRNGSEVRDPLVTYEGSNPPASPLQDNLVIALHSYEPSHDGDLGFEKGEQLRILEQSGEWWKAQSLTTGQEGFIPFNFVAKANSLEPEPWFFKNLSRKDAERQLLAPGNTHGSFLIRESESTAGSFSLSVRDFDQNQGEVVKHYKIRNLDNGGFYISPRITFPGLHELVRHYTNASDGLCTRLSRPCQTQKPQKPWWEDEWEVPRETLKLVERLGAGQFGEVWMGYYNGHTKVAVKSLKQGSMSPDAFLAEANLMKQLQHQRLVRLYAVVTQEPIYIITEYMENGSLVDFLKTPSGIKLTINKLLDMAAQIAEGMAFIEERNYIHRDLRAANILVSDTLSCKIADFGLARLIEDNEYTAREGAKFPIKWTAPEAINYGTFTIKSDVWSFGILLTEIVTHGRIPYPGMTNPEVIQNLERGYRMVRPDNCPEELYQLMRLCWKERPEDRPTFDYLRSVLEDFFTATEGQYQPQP
T6 sequence (P00533 25-1210, species assumed): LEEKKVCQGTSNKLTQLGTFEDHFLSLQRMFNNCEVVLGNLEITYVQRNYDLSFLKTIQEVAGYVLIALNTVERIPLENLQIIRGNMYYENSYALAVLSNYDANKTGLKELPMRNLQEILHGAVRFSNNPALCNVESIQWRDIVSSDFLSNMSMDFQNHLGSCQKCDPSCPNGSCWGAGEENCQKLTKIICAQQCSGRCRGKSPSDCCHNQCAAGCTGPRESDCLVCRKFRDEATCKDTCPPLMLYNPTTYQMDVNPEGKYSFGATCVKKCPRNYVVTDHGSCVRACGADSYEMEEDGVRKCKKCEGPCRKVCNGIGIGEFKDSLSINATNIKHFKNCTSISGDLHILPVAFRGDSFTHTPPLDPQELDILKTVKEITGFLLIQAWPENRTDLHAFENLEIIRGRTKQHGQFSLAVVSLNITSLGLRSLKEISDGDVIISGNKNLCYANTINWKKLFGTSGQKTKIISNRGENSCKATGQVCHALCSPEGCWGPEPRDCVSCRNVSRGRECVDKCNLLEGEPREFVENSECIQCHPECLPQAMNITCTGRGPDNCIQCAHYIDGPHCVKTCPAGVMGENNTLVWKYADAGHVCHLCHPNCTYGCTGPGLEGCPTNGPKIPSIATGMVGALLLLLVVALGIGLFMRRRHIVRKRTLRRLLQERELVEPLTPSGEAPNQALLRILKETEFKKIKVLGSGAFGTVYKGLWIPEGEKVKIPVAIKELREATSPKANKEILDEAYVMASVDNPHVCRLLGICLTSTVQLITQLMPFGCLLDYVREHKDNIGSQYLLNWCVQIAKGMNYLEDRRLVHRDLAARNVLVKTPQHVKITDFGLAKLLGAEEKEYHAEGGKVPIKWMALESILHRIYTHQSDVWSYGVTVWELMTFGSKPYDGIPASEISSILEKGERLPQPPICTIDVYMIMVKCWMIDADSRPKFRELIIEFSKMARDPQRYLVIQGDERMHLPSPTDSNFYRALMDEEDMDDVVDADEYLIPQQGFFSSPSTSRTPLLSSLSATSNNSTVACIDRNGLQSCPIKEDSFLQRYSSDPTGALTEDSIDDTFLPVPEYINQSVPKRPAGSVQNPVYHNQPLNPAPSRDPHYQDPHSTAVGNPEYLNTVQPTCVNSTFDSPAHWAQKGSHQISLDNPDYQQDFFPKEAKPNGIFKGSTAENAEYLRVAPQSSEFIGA

With `Brc1ccc(Nc2ncnc(-n3cccc3)n2)cc1` [Compound 272], the IC50 is over 14.2 µM on Lck; over 14.2 µM on Itk; over 14.2 µM on Kdr; over 14.2 µM on c-Met; 7.59 to 11.1 µM at Zap-70; over 14.2 µM at EGFR.
For `COc1ccc(Nc2ncnc(-n3cccc3)n2)c(OC)c1` [Compound 273], the IC50 on Lck, at Itk, on Kdr, on c-Met, at Zap-70 and at EGFR was over 15.1 µM throughout.
For `Clc1cc(Cl)cc(Nc2ncnc(-n3cccc3)n2)c1` [Compound 274], the IC50 on Lck is over 14.7 µM; at Itk, over 14.7 µM; at Kdr, 1.31 to 7.84 µM; at c-Met it was over 14.7 µM; at Zap-70, over 14.7 µM; at EGFR it was over 14.7 µM.
Take `Clc1cccc(Nc2ncnc(-n3cccc3)n2)c1` [Compound 275]: the IC50 was over 16.6 µM on Lck; over 16.6 µM on Itk; 1.47 to 8.83 µM at Kdr; 12.9 to 16.6 µM on c-Met; over 16.6 µM at Zap-70; over 16.6 µM on EGFR.
Consider `Cc1ccc(Nc2ncnc(-n3cccc3)n2)cc1Cl` [Compound 276], for which the IC50 at Lck was over 15.7 µM; on Itk, over 15.7 µM; at Kdr it was 1.4 to 8.4 µM; at c-Met, over 15.7 µM; on Zap-70, over 15.7 µM; on EGFR, over 15.7 µM.
As for `FC(F)(F)c1cccc(Nc2ncnc(-n3cccc3)n2)c1` [Compound 277], the IC50 was over 14.7 µM at Lck; over 14.7 µM at Itk; 1.31 to 7.86 µM on Kdr; over 14.7 µM at c-Met; over 14.7 µM at Zap-70; over 14.7 µM at EGFR.
For `ClCc1ccccc1Nc1ncnc(-n2cccc2)n1` [Compound 278], the IC50 at Lck, on Itk, on Kdr, on c-Met, at Zap-70 and on EGFR was over 15.7 µM in each case.
On to `COc1ccccc1Nc1ncnc(-n2cccc2)n1` [Compound 279], for which the IC50 on Lck, at Itk, at Kdr, at c-Met, on Zap-70 and on EGFR was over 16.8 µM in each case.
On to `Clc1ccccc1Nc1ncnc(-n2cccc2)n1` [Compound 280], for which the IC50 at Lck, at Itk, at Kdr, at c-Met, at Zap-70 and on EGFR was over 16.6 µM in each case.
For the molecule `Cc1cccc(Nc2ncnc(-n3cccc3)n2)c1C` [Compound 281], the IC50 at Lck, at Itk, on Kdr, on c-Met, on Zap-70 and on EGFR was over 17 µM throughout.
On to `Cc1cc(Br)ccc1Nc1ncnc(-n2cccc2)n1` [Compound 282], for which the IC50 on Lck was over 13.6 µM; on Itk, over 13.6 µM; at Kdr, over 13.6 µM; at c-Met, 7.27 to 10.6 µM; at Zap-70, over 13.6 µM; at EGFR, over 13.6 µM.
In the case of `FC(F)(F)c1ccc(Cl)c(Nc2ncnc(-n3cccc3)n2)c1` [Compound 283], the IC50 on Lck, at Itk, on Kdr, at c-Met, on Zap-70 and at EGFR was over 13.2 µM each time.
In the case of `Fc1ccc(Nc2ncnc(-n3cccc3)n2)cc1` [Compound 284], the IC50 on Lck was over 17.6 µM; at Itk, over 17.6 µM; at Kdr, 13.7 to 17.6 µM; at c-Met it was over 17.6 µM; at Zap-70, over 17.6 µM; on EGFR, over 17.6 µM.
`Nc1ncnc(Nc2ccc(F)cc2F)n1` [Compound 1014]: the IC50 at Lck, at Itk, on Kdr, on c-Met, at Zap-70 and at EGFR was over 20.2 µM in each case.
With `Nc1ncnc(Nc2cccc(C(F)(F)F)c2)n1` [Compound 1015], the IC50 on Lck, at Itk, on Kdr, at c-Met, on Zap-70 and on EGFR was over 17.6 µM throughout.
As to `Nc1ncnc(Nc2nc(-c3ccc(Cl)cc3)cs2)n1` [Compound 1016], the IC50 at Lck, at Itk, at Kdr, on c-Met, on Zap-70 and at EGFR was over 14.8 µM in each case.
`Cc1ccc(Nc2ncnc(N)n2)cc1` [Compound 1017]: the IC50 at Lck, at Itk, on Kdr, at c-Met, at Zap-70 and at EGFR was over 22.4 µM in each case.
Turning to `Nc1ncnc(Nc2cccc(Cl)c2)n1` [Compound 1019], the IC50 is over 20.3 µM at Lck; over 20.3 µM at Itk; 10.8 to 15.8 µM on Kdr; over 20.3 µM on c-Met; over 20.3 µM on Zap-70; over 20.3 µM on EGFR.
As for `Nc1ncnc(Nc2nc(-c3ccccc3)cs2)n1` [Compound 1020], the IC50 on Lck, at Itk, at Kdr, at c-Met, on Zap-70 and on EGFR was over 16.6 µM in each case.
On to `Nc1ncnc(Nc2cc(Cl)ccc2O)n1` [Compound 1022], for which the IC50 on Lck, at Itk, at Kdr, at c-Met, at Zap-70 and on EGFR was over 18.9 µM each time.
On to `Nc1ncnc(Nc2cccc(Nc3ncnc(N)n3)c2)n1` [Compound 1027], for which the IC50 on Lck, on Itk, at Kdr, on c-Met, on Zap-70 and at EGFR was over 15.2 µM throughout.
